In brackets after ≈: the same amount, converted by molar mass. Activity calls are given as the source filed them. No cut-off for these calls is given here.
Experiments:
Micrococcus luteus [1] = assay: Antibacterial activity against Micrococcus luteus MTCC 1538 assessed as growth inhibition after 24 hr by tube dilution method; assay type: functional; conditions: MTCC 1538, 24 h
Pseudomonas fluorescens [2] = assay: Antibacterial activity against Pseudomonas fluorescens MTCC 2421 assessed as growth inhibition after 24 hr by tube dilution method; assay type: functional; conditions: MTCC 2421, 24 h
Escherichia coli [3] = assay: Antibacterial activity against Escherichia coli MTCC 1573 assessed as growth inhibition after 24 hr by tube dilution method; assay type: functional; conditions: MTCC 1573, 24 h
Penicillium chrysogenum [4] = assay: Antifungal activity against Penicillium chrysogenum MTCC 161 assessed as growth inhibition at 1250 ug/mL after 48 hr by agar diffusion method; assay type: functional; conditions: MTCC 161, 48 h, read-out: DIZ
Bacillus subtilis [5] = assay: Antibacterial activity against Bacillus subtilis MTCC 441 assessed as growth inhibition at 1250 ug/mL after 48 hr by agar diffusion method; assay type: functional; conditions: MTCC 441, 48 h, read-out: DIZ
Bacillus subtilis [6] = assay: Antibacterial activity against Bacillus subtilis MTCC 441 assessed as growth inhibition at 250 ug/mL after 48 hr by agar diffusion method; assay type: functional; conditions: MTCC 441, 48 h, read-out: DIZ
Penicillium chrysogenum [7] = assay: Antifungal activity against Penicillium chrysogenum MTCC 161 assessed as growth inhibition at 1000 ug/mL after 48 hr by agar diffusion method; assay type: functional; conditions: MTCC 161, 48 h, read-out: DIZ
Penicillium chrysogenum [8] = assay: Antifungal activity against Penicillium chrysogenum MTCC 161 assessed as growth inhibition at 100 ug/mL after 48 hr by agar diffusion method; assay type: functional, organism-based
Aspergillus niger [9] = assay: Antifungal activity against Aspergillus niger MTCC 2546 assessed as growth inhibition at 1250 ug/mL after 48 hr by agar diffusion method; assay type: functional; conditions: MTCC 2546, 48 h, read-out: DIZ
Aspergillus niger [10] = assay: Antifungal activity against Aspergillus niger MTCC 2546 assessed as growth inhibition at 100 ug/mL after 48 hr by agar diffusion method; assay type: functional, organism-based
Pseudomonas fluorescens [11] = assay: Antibacterial activity against Pseudomonas fluorescens MTCC 2421 assessed as growth inhibition at 1250 ug/mL after 48 hr by agar diffusion method; assay type: functional; conditions: MTCC 2421, 48 h, read-out: DIZ
Pseudomonas fluorescens [12] = assay: Antibacterial activity against Pseudomonas fluorescens MTCC 2421 assessed as growth inhibition at 1000 ug/mL after 48 hr by agar diffusion method; assay type: functional; conditions: MTCC 2421, 48 h, read-out: DIZ
Pseudomonas fluorescens [13] = assay: Antibacterial activity against Pseudomonas fluorescens MTCC 2421 assessed as growth inhibition at 750 ug/mL after 48 hr by agar diffusion method; assay type: functional; conditions: MTCC 2421, 48 h, read-out: DIZ
Pseudomonas fluorescens [14] = assay: Antibacterial activity against Pseudomonas fluorescens MTCC 2421 assessed as growth inhibition at 500 ug/mL after 48 hr by agar diffusion method; assay type: functional; conditions: MTCC 2421, 48 h, read-out: DIZ
Pseudomonas fluorescens [15] = assay: Antibacterial activity against Pseudomonas fluorescens MTCC 2421 assessed as growth inhibition at 250 ug/mL after 48 hr by agar diffusion method; assay type: functional; conditions: MTCC 2421, 48 h, read-out: DIZ
Micrococcus luteus [16] = assay: Antibacterial activity against Micrococcus luteus MTCC 1538 assessed as growth inhibition at 250 ug/mL after 48 hr by agar diffusion method; assay type: functional
Micrococcus luteus [17] = assay: Antibacterial activity against Micrococcus luteus MTCC 1538 assessed as growth inhibition at 100 ug/mL after 48 hr by agar diffusion method; assay type: functional
Bacillus pumilus [18] = assay: Antibacterial activity against Bacillus pumilus MTCC 1456 assessed as growth inhibition at 1250 ug/mL after 48 hr by agar diffusion method; assay type: functional; conditions: MTCC 1456, 48 h, read-out: DIZ
Bacillus pumilus [19] = assay: Antibacterial activity against Bacillus pumilus MTCC 1456 assessed as growth inhibition at 1000 ug/mL after 48 hr by agar diffusion method; assay type: functional; conditions: MTCC 1456, 48 h, read-out: DIZ
Bacillus pumilus [20] = assay: Antibacterial activity against Bacillus pumilus MTCC 1456 assessed as growth inhibition at 750 ug/mL after 48 hr by agar diffusion method; assay type: functional; conditions: MTCC 1456, 48 h, read-out: DIZ
Bacillus pumilus [21] = assay: Antibacterial activity against Bacillus pumilus MTCC 1456 assessed as growth inhibition at 500 ug/mL after 48 hr by agar diffusion method; assay type: functional; conditions: MTCC 1456, 48 h, read-out: DIZ
Bacillus pumilus [22] = assay: Antibacterial activity against Bacillus pumilus MTCC 1456 assessed as growth inhibition at 250 ug/mL after 48 hr by agar diffusion method; assay type: functional; conditions: MTCC 1456, 48 h, read-out: DIZ
Bacillus pumilus [23] = assay: Antibacterial activity against Bacillus pumilus MTCC 1456 assessed as growth inhibition at 100 ug/mL after 48 hr by agar diffusion method; assay type: functional; conditions: MTCC 1456, 48 h, read-out: DIZ
Staphylococcus aureus [24] = assay: Antibacterial activity against Staphylococcus aureus MTCC 1430 assessed as growth inhibition at 1250 ug/mL after 48 hr by agar diffusion method; assay type: functional; conditions: MTCC 1430, 48 h, read-out: DIZ
Staphylococcus aureus [25] = assay: Antibacterial activity against Staphylococcus aureus MTCC 1430 assessed as growth inhibition at 750 ug/mL after 48 hr by agar diffusion method; assay type: functional; conditions: MTCC 1430, 48 h, read-out: DIZ
Staphylococcus aureus [26] = assay: Antibacterial activity against Staphylococcus aureus MTCC 1430 assessed as growth inhibition at 500 ug/mL after 48 hr by agar diffusion method; assay type: functional; conditions: MTCC 1430, 48 h, read-out: DIZ
Staphylococcus aureus [27] = assay: Antibacterial activity against Staphylococcus aureus MTCC 1430 assessed as growth inhibition at 100 ug/mL after 48 hr by agar diffusion method; assay type: functional, organism-based
Pseudomonas aeruginosa [28] = assay: Antibacterial activity against Pseudomonas aeruginosa MTCC 424 assessed as growth inhibition at 250 ug/mL after 48 hr by agar diffusion method; assay type: functional; conditions: MTCC 424, 48 h, read-out: DIZ
Micrococcus luteus [29] = assay: Antibacterial activity against Micrococcus luteus MTCC 1538 assessed as growth inhibition at 1000 ug/mL after 48 hr by agar diffusion method; assay type: functional; conditions: MTCC 1538, 48 h, read-out: DIZ
Micrococcus luteus [30] = assay: Antibacterial activity against Micrococcus luteus MTCC 1538 assessed as growth inhibition at 750 ug/mL after 48 hr by agar diffusion method; assay type: functional; conditions: MTCC 1538, 48 h, read-out: DIZ
Pseudomonas fluorescens [31] = assay: Antibacterial activity against Pseudomonas fluorescens MTCC 2421 assessed as growth inhibition at 100 ug/mL after 48 hr by agar diffusion method; assay type: functional; conditions: MTCC 2421, 48 h, read-out: DIZ
Escherichia coli [32] = assay: Antibacterial activity against Escherichia coli MTCC 1573 assessed as growth inhibition at 1250 ug/mL after 48 hr by agar diffusion method; assay type: functional; conditions: MTCC 1573, 48 h, read-out: DIZ
Escherichia coli [33] = assay: Antibacterial activity against Escherichia coli MTCC 1573 assessed as growth inhibition at 1000 ug/mL after 48 hr by agar diffusion method; assay type: functional; conditions: MTCC 1573, 48 h, read-out: DIZ
Escherichia coli [34] = assay: Antibacterial activity against Escherichia coli MTCC 1573 assessed as growth inhibition at 750 ug/mL after 48 hr by agar diffusion method; assay type: functional; conditions: MTCC 1573, 48 h, read-out: DIZ
Escherichia coli [35] = assay: Antibacterial activity against Escherichia coli MTCC 1573 assessed as growth inhibition at 250 ug/mL after 48 hr by agar diffusion method; assay type: functional; conditions: MTCC 1573, 48 h, read-out: DIZ
Escherichia coli [36] = assay: Antibacterial activity against Escherichia coli MTCC 1573 assessed as growth inhibition at 100 ug/mL after 48 hr by agar diffusion method; assay type: functional; conditions: MTCC 1573, 48 h, read-out: DIZ
Pseudomonas aeruginosa [37] = assay: Antibacterial activity against Pseudomonas aeruginosa MTCC 424 assessed as growth inhibition at 1250 ug/mL after 48 hr by agar diffusion method; assay type: functional; conditions: MTCC 424, 48 h, read-out: DIZ
Pseudomonas aeruginosa [38] = assay: Antibacterial activity against Pseudomonas aeruginosa MTCC 424 assessed as growth inhibition at 1000 ug/mL after 48 hr by agar diffusion method; assay type: functional; conditions: MTCC 424, 48 h, read-out: DIZ
Pseudomonas aeruginosa [39] = assay: Antibacterial activity against Pseudomonas aeruginosa MTCC 424 assessed as growth inhibition at 750 ug/mL after 48 hr by agar diffusion method; assay type: functional; conditions: MTCC 424, 48 h, read-out: DIZ

MIC (Micrococcus luteus [1]) [µg/mL] | MIC (Pseudomonas fluorescens [2]) [µg/mL] | MIC (Escherichia coli [3]) [µg/mL] | SMILES | zone of inhibition at 1250 µg/mL (Penicillium chrysogenum [4]) [mm] | zone of inhibition at 1250 µg/mL (Bacillus subtilis [5]) [mm] | zone of inhibition at 250 µg/mL (Bacillus subtilis [6]) [mm] | zone of inhibition at 1000 µg/mL (Penicillium chrysogenum [7]) [mm] | growth inhibition (GI) (Penicillium chrysogenum [8]) | zone of inhibition at 1250 µg/mL (Aspergillus niger [9]) [mm] | growth inhibition (GI) (Aspergillus niger [10]) | zone of inhibition at 1250 µg/mL (Pseudomonas fluorescens [11]) [mm] | zone of inhibition at 1000 µg/mL (Pseudomonas fluorescens [12]) [mm] | zone of inhibition at 750 µg/mL (Pseudomonas fluorescens [13]) [mm] | zone of inhibition at 500 µg/mL (Pseudomonas fluorescens [14]) [mm] | zone of inhibition at 250 µg/mL (Pseudomonas fluorescens [15]) [mm] | growth inhibition (GI) (Micrococcus luteus [16]) | growth inhibition (GI) (Micrococcus luteus [17]) | zone of inhibition at 1250 µg/mL (Bacillus pumilus [18]) [mm] | zone of inhibition at 1000 µg/mL (Bacillus pumilus [19]) [mm] | zone of inhibition at 750 µg/mL (Bacillus pumilus [20]) [mm] | further results
150 (≈ 334 µM) | 40 (≈ 89.1 µM) | 30 (≈ 66.8 µM) | O=C1CSC(c2cccc3ccccc23)N1c1nnc2c3cc(Cl)ccc3nc-2s1 (stereo not drawn) | 18 | 20 | 7 | 15 | inactive | 18 | inactive | 24 | 20 | 15 | 12 | 11 | inactive | inactive | 20 | 17 | 15 | zone of inhibition at 500 µg/mL (Bacillus pumilus [21]): 13 mm; zone of inhibition at 250 µg/mL (Bacillus pumilus [22]): 10 mm; zone of inhibition at 100 µg/mL (Bacillus pumilus [23]): 8 mm; zone of inhibition at 1250 µg/mL (Staphylococcus aureus [24]): 15 mm; zone of inhibition at 750 µg/mL (Staphylococcus aureus [25]): 8 mm; zone of inhibition at 500 µg/mL (Staphylococcus aureus [26]): 6 mm; growth inhibition (GI) (Staphylococcus aureus [27]): inactive; zone of inhibition at 250 µg/mL (Pseudomonas aeruginosa [28]): 10 mm; zone of inhibition at 1000 µg/mL (Micrococcus luteus [29]): 15 mm; zone of inhibition at 750 µg/mL (Micrococcus luteus [30]): 12 mm; zone of inhibition at 100 µg/mL (Pseudomonas fluorescens [31]): 8 mm; zone of inhibition at 1250 µg/mL (Escherichia coli [32]): 20 mm; zone of inhibition at 1000 µg/mL (Escherichia coli [33]): 17 mm; zone of inhibition at 750 µg/mL (Escherichia coli [34]): 15 mm; zone of inhibition at 250 µg/mL (Escherichia coli [35]): 10 mm; zone of inhibition at 100 µg/mL (Escherichia coli [36]): 7 mm; zone of inhibition at 1250 µg/mL (Pseudomonas aeruginosa [37]): 18 mm; zone of inhibition at 1000 µg/mL (Pseudomonas aeruginosa [38]): 15 mm; zone of inhibition at 750 µg/mL (Pseudomonas aeruginosa [39]): 13 mm
250 (≈ 603 µM) | 40 (≈ 96.5 µM) | 50 (≈ 121 µM) | O=C1CSC(c2cccc3ccccc23)N1c1nnc2c3ccccc3nc-2s1 (stereo not drawn) | 15 | 20 | 10 | 12 | inactive | 19 | inactive | 22 | 19 | 16 | 14 | 10 | inactive | inactive | 26 | 20 | 15 | zone of inhibition at 500 µg/mL (Bacillus pumilus [21]): 11 mm; zone of inhibition at 250 µg/mL (Bacillus pumilus [22]): 8 mm; zone of inhibition at 100 µg/mL (Bacillus pumilus [23]): 6 mm; zone of inhibition at 1250 µg/mL (Staphylococcus aureus [24]): 18 mm; zone of inhibition at 750 µg/mL (Staphylococcus aureus [25]): 12 mm; zone of inhibition at 500 µg/mL (Staphylococcus aureus [26]): 10 mm; growth inhibition (GI) (Staphylococcus aureus [27]): inactive; zone of inhibition at 250 µg/mL (Pseudomonas aeruginosa [28]): 10 mm; zone of inhibition at 1000 µg/mL (Micrococcus luteus [29]): 14 mm; zone of inhibition at 750 µg/mL (Micrococcus luteus [30]): 11 mm; zone of inhibition at 100 µg/mL (Pseudomonas fluorescens [31]): 7 mm; zone of inhibition at 1250 µg/mL (Escherichia coli [32]): 18 mm; zone of inhibition at 1000 µg/mL (Escherichia coli [33]): 15 mm; zone of inhibition at 750 µg/mL (Escherichia coli [34]): 13 mm; zone of inhibition at 250 µg/mL (Escherichia coli [35]): 10 mm; zone of inhibition at 100 µg/mL (Escherichia coli [36]): 8 mm; zone of inhibition at 1250 µg/mL (Pseudomonas aeruginosa [37]): 20 mm; zone of inhibition at 1000 µg/mL (Pseudomonas aeruginosa [38]): 17 mm; zone of inhibition at 750 µg/mL (Pseudomonas aeruginosa [39]): 15 mm
